Data taken from paper PMC12036747, “Effects of galloflavin and ellagic acid on sirtuin 6 and its anti-tumorigenic activities” (Biomedicine & pharmacotherapy = Biomedecine & …, 2020).

How the values were obtained:
Assay type in all cases: biochemical
Sirtuin 6 (SIRT6) [1] = target: T1, Sirtuin 6 (SIRT6) (Homo sapiens, UniProt Q8N6T7); test: HPLC deacetylation assay with H3K9Ac peptide (activation); immunoblot with core histones
T1 construct: recombinant GST-tagged human SIRT6

SIRT1 = target: T2, SIRT1 (Homo sapiens, UniProt Q96EB6); test: Fluor de Lys deacetylation assay, moderate inhibition at […]
T2 sequence (Q96EB6 2-747): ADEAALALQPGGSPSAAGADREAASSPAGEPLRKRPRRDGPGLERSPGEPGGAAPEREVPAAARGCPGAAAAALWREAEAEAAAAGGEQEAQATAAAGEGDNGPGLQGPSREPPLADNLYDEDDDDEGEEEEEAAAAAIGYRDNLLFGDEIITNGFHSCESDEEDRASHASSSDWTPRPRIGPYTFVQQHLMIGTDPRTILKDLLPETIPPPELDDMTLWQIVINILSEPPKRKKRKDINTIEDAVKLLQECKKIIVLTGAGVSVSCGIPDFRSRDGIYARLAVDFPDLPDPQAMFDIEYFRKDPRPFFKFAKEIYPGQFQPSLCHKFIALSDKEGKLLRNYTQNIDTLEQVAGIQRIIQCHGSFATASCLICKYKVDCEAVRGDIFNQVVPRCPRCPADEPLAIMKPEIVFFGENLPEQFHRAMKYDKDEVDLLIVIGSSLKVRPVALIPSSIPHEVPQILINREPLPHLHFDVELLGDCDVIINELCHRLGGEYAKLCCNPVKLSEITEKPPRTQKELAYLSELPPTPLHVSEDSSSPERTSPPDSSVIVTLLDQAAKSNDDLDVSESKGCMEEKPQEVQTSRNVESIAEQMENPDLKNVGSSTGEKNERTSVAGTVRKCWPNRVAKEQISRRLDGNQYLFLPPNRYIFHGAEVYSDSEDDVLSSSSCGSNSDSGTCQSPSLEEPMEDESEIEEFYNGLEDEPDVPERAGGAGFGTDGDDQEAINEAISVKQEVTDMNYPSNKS

SIRT3 = target: T3, SIRT3 (Homo sapiens, UniProt Q9NTG7); test: as above
T3 sequence (Q9NTG7 102-399): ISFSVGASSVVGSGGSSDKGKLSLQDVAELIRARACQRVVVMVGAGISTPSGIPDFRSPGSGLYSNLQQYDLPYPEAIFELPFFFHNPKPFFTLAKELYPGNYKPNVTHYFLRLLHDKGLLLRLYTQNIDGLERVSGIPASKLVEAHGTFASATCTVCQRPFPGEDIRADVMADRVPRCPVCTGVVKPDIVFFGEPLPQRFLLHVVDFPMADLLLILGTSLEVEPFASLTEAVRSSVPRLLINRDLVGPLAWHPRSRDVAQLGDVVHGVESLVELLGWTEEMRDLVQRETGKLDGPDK

SIRT2 = target: T4, SIRT2 (Homo sapiens, UniProt Q8IXJ6); test: Fluor de Lys deacetylation assay, inhibition at […]
T4 sequence (Q8IXJ6 2-389): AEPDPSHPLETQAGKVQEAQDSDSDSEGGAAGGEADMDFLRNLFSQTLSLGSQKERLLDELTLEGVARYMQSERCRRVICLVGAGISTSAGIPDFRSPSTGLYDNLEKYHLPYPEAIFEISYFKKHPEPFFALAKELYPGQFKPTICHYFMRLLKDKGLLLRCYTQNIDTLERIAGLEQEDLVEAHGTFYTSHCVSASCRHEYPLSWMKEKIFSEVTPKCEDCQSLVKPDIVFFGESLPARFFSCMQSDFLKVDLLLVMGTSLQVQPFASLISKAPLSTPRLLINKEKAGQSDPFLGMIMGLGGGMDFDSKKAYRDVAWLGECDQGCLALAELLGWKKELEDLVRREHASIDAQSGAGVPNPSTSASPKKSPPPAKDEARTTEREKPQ

Sirtuin 6 (SIRT6) [2] = target: T1, Sirtuin 6 (SIRT6); test: HPLC deacetylation assay with H3K9Ac peptide (activation); immunoblot with core histones; Michaelis-Menten kinetics

T1 sequence (Q8N6T7 2-355): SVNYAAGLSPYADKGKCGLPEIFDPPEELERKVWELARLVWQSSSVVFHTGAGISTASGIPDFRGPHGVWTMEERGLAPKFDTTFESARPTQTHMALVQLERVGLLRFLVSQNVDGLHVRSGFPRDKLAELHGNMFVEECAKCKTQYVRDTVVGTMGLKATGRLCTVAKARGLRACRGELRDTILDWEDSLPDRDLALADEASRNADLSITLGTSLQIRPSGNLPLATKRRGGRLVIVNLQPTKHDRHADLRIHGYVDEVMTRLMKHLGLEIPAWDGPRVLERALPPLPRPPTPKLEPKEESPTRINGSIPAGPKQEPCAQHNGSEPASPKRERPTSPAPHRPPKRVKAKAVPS

| SMILES | EC50 (Sirtuin 6 (SIRT6) [1]) | Fluor de Lys deacetylation assay, moderate inhibition at 100 μM (SIRT1) | Fluor de Lys deacetylation assay, moderate inhibition at 100 μM (SIRT3) | % (SIRT2) | EC50 (Sirtuin 6 (SIRT6) [2]) |
| --- | --- | --- | --- | --- | --- |
| O=c1oc2c(cc1O)oc(=O)c1cc(O)c(O)c(O)c12 [Galloflavin] | 79 µM | Galloflavin and Ellagic acid displayed moderate inhibition against SIRT1 and SIRT3 | Galloflavin and Ellagic acid displayed moderate inhibition against SIRT1 and SIRT3 | up to 60 % inhibition at 100 μM |  |
| O=c1oc2c(O)c(O)cc3c(=O)oc4c(O)c(O)cc1c4c23 [Ellagic acid] |  | Galloflavin and Ellagic acid displayed moderate inhibition against SIRT1 and SIRT3 | Galloflavin and Ellagic acid displayed moderate inhibition against SIRT1 and SIRT3 | up to 60 % inhibition at 100 μM | 25 µM |
